Laboratory results reported in patent US8383139B2 (Bayer CropScience AG, priority 2008, dated 2013).

Assays:
[1] = log P by HPLC on reversed-phase columns (C 18), EEC Directive 79/831 Annex V.A8; type: physicochemical; conditions: reversed-phase C18 HPLC column, pH 2.3, [a] HPLC, acid region pH 2.3, 0.1% aqueous phosphoric acid and acetonitrile; read-out: log p
[2] = test system: Sphaerotheca fuliginea; experiment: Sphaerotheca test (cucumber)/protective; type: in vivo; conditions: Podosphaera fuliginea, 168 h, 500 ppm active substance, protective, evaluation 7 days after inoculation, read-out: degree of effectiveness
Method: • Solvents: 49 parts by weight of N,N-dimethylformamide • Emulsifier: 1 part by weight of alkylaryl polyglycol ether (polyoxyethylene (16) tristearylphenyl ether) To prepare a suitable active substance composition, 1 part by weight of active substance is mixed with the given amounts of solvents and emulsifier and the concentrate is diluted to the desired concentration using water. For the testing of protective effectiveness, young cucumber plants are sprayed with the active substance composition in the application rate given. One day after the treatment, the plants are inoculated with a suspension of spores of Sphaerotheca fuliginea. Subsequently, the plants are placed in a greenhouse at 70% relative humidity and at a temperature of 23° C. Evaluation is carried out 7 days after the inoculation. In this connection, 0% means a degree of effectiveness corresponding to that of the control, while a degree of effectiveness of 100% means that no infestation is observed.

[3] = test system: Uromyces appendiculatus; experiment: Uromyces test (beans)/protective; type: in vivo; conditions: 240 h, 100 ppm active substance, protective, evaluation 10 days after inoculation, read-out: degree of effectiveness
Method: (§1) • Solvents: 24.5 parts by weight of acetone • 24.5 parts by weight of dimethylacetamide • Emulsifier: 1 part by weight of alkylaryl polyglycol ether (polyoxyethylene (16) tristearylphenyl ether)
(§2) To prepare a suitable active substance composition, 1 part by weight of active substance is mixed with the given amounts of solvents and emulsifier and the concentrate is diluted to the desired concentration using water.
For the testing of protective effectiveness, young plants are sprayed with the active substance composition in the application rate given. After the spray coating has been dried on, the plants are inoculated with an aqueous suspension of the spores of the bean rust pathogen Uromyces appendiculatus and then remain in an incubation chamber at approximately 20° C. and 100% relative humidity for 1 day.
The plants are then placed in a greenhouse at approximately 21° C. and a relative humidity of approximately 90%.
Evaluation is carried out 10 days after the inoculation. In this connection, 0% means a degree of effectiveness corresponding to that of the control, while a degree of effectiveness of 100% means that no infestation is observed.

[4] = test system: Septoria tritici; experiment: Septoria tritici test (wheat)/protective; type: in vivo; conditions: Zymoseptoria tritici, 504 h, 500 ppm active substance, protective, evaluation 21 days after inoculation, read-out: degree of effectiveness
Method: • Solvent: 50 parts by weight of N,N-dimethylacetamide • Emulsifier: 1 part by weight of alkylaryl polyglycol ether (polyoxyethylene (16) tristearylphenyl ether) To prepare a suitable active substance composition, 1 part by weight of active substance is mixed with the given amounts of solvent and emulsifier and the concentrate is diluted to the desired concentration using water. For the testing of protective effectiveness, young plants are sprayed with the active substance composition at the application rate given. After the spray coating has dried on, the plants are sprayed with a suspension of spores of Septoria tritici. The plants remain in an incubation chamber at 20° C. and 100% relative humidity for 48 hours. The plants are afterwards placed under a transparent hood at 15° C. and 100% relative humidity for a further 60 hours. The plants are placed in a greenhouse at a temperature of approximately 15° C. and a relative humidity of 80%. Evaluation is carried out 21 days after the inoculation. In this connection, 0% means a degree of effectiveness corresponding to that of the control, while a degree of effectiveness of 100% means that no infestation is observed.

[5] = test system: Puccinia triticina; experiment: Puccinia triticina test (wheat)/protective; type: in vivo; conditions: 192 h, 500 ppm active substance, protective, evaluation 8 days after inoculation, read-out: degree of effectiveness
Method: • Solvent: 50 parts by weight of N,N-dimethylacetamide • Emulsifier: 1 part by weight of alkylaryl polyglycol ether (polyoxyethylene (16) tristearylphenyl ether) To prepare a suitable active substance composition, 1 part by weight of active substance is mixed with the given amounts of solvent and emulsifier and the concentrate is diluted to the desired concentration using water. For the testing of protective effectiveness, young plants are sprayed with the active substance composition in the application rate given. After the spray coating has been dried on, the plants are sprayed with spores with a suspension of spores of Puccinia triticina. The plants remain in an incubation chamber at 20° C. and 100% relative humidity for 48 hours. The plants are placed in a greenhouse at a temperature of approximately 20° C. and a relative humidity of approximately 80%. Evaluation is carried out 8 days after the inoculation. In this connection, 0% means a degree of effectiveness corresponding to that of the control, while a degree of effectiveness of 100% means that no infestation is observed.

[6] = test system: Alternaria solani; experiment: Alternaria test (tomato)/protective; type: in vivo; conditions: 72 h, 100 ppm active substance, protective, evaluation 3 days after inoculation, read-out: degree of effectiveness
Method: as §1, §2
For the testing of protective effectiveness, young plants are sprayed with the active substance composition in the application rate given. After the spray coating has been dried on, the plants are inoculated with an aqueous suspension of spores of Alternaria solani. The plants are then placed in an incubation chamber at approximately 20° C. and 100% relative humidity.
Evaluation is carried out 3 days after the inoculation. In this connection, 0% means a degree of effectiveness corresponding to that of the control, while a degree of effectiveness of 100% means that no infestation is observed.

| Structure (SMILES) | chromatographic logP [1] | pest or weed control at 500 ppm [2] | pest or weed control at 100 ppm [3] | pest or weed control at 500 ppm [4] | pest or weed control at 500 ppm [5] | pest or weed control at 100 ppm [6] |
| --- | --- | --- | --- | --- | --- | --- |
| Cc1cc(Oc2nc(Cc3ccc(Cl)cc3Cl)ns2)c(C)cc1N=CN(C)C(C)C [Example 12, N′-(4-{[3-(2,4-dichlorobenzyl)-1,2,4-thiadiazol-5-yl]oxy}-2,5-dimethylphenyl)-N-methyl-N-(propan-2-yl)imidoformamide] | 2.24 | ≥ 70% | ≥ 70% | ≥ 70% | ≥ 70% |  |
| CCN(C)C=Nc1cc(C)c(Oc2nc(Cc3cc(Br)ccc3C)ns2)cc1C [Example 14, N′-(4-{[3-(5-bromo-2-methylbenzyl)-1,2,4-thiadiazol-5-yl]oxy}-2,5-dimethylphenyl)-N-ethyl-N-methylimidoformamide] | 2.28 | ≥ 70% | ≥ 70% | ≥ 70% | ≥ 70% |  |
| Cc1cc(Oc2nc(C3(c4ccc(Cl)cc4)CC3)ns2)c(C)cc1N=CN1CCCCC1 [Example 38, 4-({3-[1-(4-chlorophenyl)cyclopropyl]-1,2,4-thiadiazol-5-yl}oxy)-2,5-dimethyl-N-(piperidin-1-ylmethylidene)aniline] | 2.6 | ≥ 70% |  | ≥ 70% | ≥ 70% | ≥ 70% |
| Cc1cc(Oc2nc(Cc3ccc(Cl)c(Cl)c3)ns2)c(C)cc1N=CN1CCCCC1 [Example 48, 4-{[3-(3,4-dichlorobenzyl)-1,2,4-thiadiazol-5-yl]oxy}-2,5-dimethyl-N-(piperidin-1-ylmethylidene)aniline] |  | ≥ 70% | ≥ 70% |  |  |  |
| COc1ccccc1Cc1nsc(Oc2cc(C)c(N=CN3CCCCC3)cc2C)n1 [Example 50, 4-{[3-(2-methoxybenzyl)-1,2,4-thiadiazol-5-yl]oxy}-2,5-dimethyl-N-(piperidin-1-ylmethylidene)aniline] | 2.05 | ≥ 70% | ≥ 70% | ≥ 70% |  |  |

Now from value to molecule, other results behind:

| chromatographic logP [1] | Structure (SMILES) | pest or weed control at 500 ppm [2] | pest or weed control at 100 ppm [3] | pest or weed control at 500 ppm [4] | pest or weed control at 500 ppm [5] | pest or weed control at 100 ppm [6] |
| --- | --- | --- | --- | --- | --- | --- |
| 2.53 | Cc1cc(Oc2nc(Cc3ccc(Cl)cc3)ns2)c(Cl)cc1N=CN1CCCCC1 [Example 4, 5-chloro-4-{[3-(4-chlorobenzyl)-1,2,4-thiadiazol-5-yl]oxy}-2-methyl-N-(piperidin-1-ylmethylidene)aniline] | ≥ 70% | ≥ 70% | ≥ 70% | ≥ 70% |  |
| 2.41 | Cc1cc(Oc2nc(C(C)c3ccc(Cl)cc3)ns2)c(C)cc1N=CN1CCCCC1 (stereo not shown) [Example 18, 4-({3-[1-(4-chlorophenyl)ethyl]-1,2,4-thiadiazol-5-yl}oxy)-2,5-dimethyl-N-(piperidin-1-ylmethylidene)aniline] | ≥ 70% | ≥ 70% |  | ≥ 70% |  |
| 2.96 | Cc1cc(Oc2nc(C(C)(C)c3ccc(Cl)cc3)ns2)c(Cl)cc1N=CN1CCCCC1 [Example 29, 5-chloro-4-({3-[2-(4-chlorophenyl)propan-2-yl]-1,2,4-thiadiazol-5-yl}oxy)-2-methyl-N-(piperidin-1-ylmethylidene)aniline] | ≥ 70% |  | ≥ 70% | ≥ 70% | ≥ 70% |
| 2.13 | Cc1cc(Oc2nc(Cc3cccc(Cl)c3)ns2)c(C)cc1N=CN1CCCCC1 [Example 34, 4-{[3-(3-chlorobenzyl)-1,2,4-thiadiazol-5-yl]oxy}-2,5-dimethyl-N-(piperidin-1-ylmethylidene)aniline] | ≥ 70% | ≥ 70% | ≥ 70% | ≥ 70% |  |
